Experiments:
Type in all cases: in vivo
rice (Oryza sativa) = assay: Test C flooded paddy test: rice; settings: scale 0 to 100 (0 no effect, 100 complete control)
Method in brief: (§1)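 Greenhouse plants treated at the 2-leaf stage by dosing the flood water (3 cm depth, maintained) were compared with controls after 13 to 15 days and rated 0 to 100, where 100 means complete control; a dash marks no test result.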

[1] = tested on: ducksalad (Heteranthera limosa); assay: Test C flooded paddy test: ducksalad; settings: scale 0 to 100 (0 no effect, 100 complete control)
Method in brief: as §1

[2] = tested on: barnyardgrass (Echinochloa crus-galli); assay: Test A pre-/postemergence: barnyardgrass
Method in brief: (§2)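 Each species received preemergence soil-directed spraying and, at the same time, postemergence treatment of seedlings 2–10 cm tall. Formulation: non-phytotoxic solvent mixture including surfactant. Response assessed visually about ten days on, relative to untreated controls, 0–100 scale.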

[3] = tested on: velvetleaf (Abutilon theophrasti); assay: Test A pre-/postemergence: velvetleaf
Method in brief: as §2

[4] = tested on: sedge, umbrella (small-flower umbrella sedge, Cyperus difformis); assay: Test C flooded paddy test: sedge, umbrella; settings: scale 0 to 100 (0 no effect, 100 complete control)
Method in brief: as §1

[5] = tested on: foxtail, giant (giant foxtail, Setaria faberii); assay: Test A pre-/postemergence: foxtail, giant
Method in brief: as §2

corn (Zea mays) = assay: Test A pre-/postemergence: corn
Method in brief: as §2

[6] = tested on: wheat (Triticum aestivum); assay: Test A pre-/postemergence: wheat
Method in brief: as §2

[7] = tested on: crabgrass, large (large crabgrass, Digitaria sanguinalis); assay: Test A pre-/postemergence: crabgrass, large
Method in brief: as §2

[8] = tested on: morningglory (Ipomoea spp.); assay: Test A pre-/postemergence: morningglory
Method in brief: as §2

[9] = tested on: barnyardgrass (Echinochloa crus-galli); assay: Test C flooded paddy test: barnyardgrass; settings: scale 0 to 100 (0 no effect, 100 complete control)
Method in brief: as §1

[10] = tested on: pigweed (Amaranthus retroflexus); assay: Test A pre-/postemergence: pigweed
Method in brief: as §2

[11] = Flood (flooded paddy test), 125 g ai/ha, visual rating after 13 to 15 days
[12] = Flood (flooded paddy test), 250 g ai/ha, visual rating after 13 to 15 days
[13] = Postemergence, 125 g ai/ha, 0 to 100 scale, 0 is no effect, 100 is complete control
[14] = Postemergence, 500 g ai/ha, visual rating on 0 to 100 scale (0 no effect, 100 complete control), approximately ten days
[15] = Preemergence, 125 g ai/ha, 0 to 100 scale (0 no effect, 100 complete control)
[16] = Preemergence, 500 g ai/ha, 0 to 100 scale, 0 is no effect, 100 is complete control
[17] = Preemergence, 125 g ai/ha, 0 to 100 scale where 0 is no effect and 100 is complete control
[18] = Postemergence, 1000 g ai/ha, visual rating on 0 to 100 scale (0 no effect, 100 complete control), approximately ten days
[19] = Preemergence, 1000 g ai/ha, 0 to 100 scale, 0 is no effect, 100 is complete control
[20] = Preemergence, 500 g ai/ha, 0 to 100 scale (0 no effect, 100 complete control)

`CCc1nn(-c2ccc(C(F)(F)F)cn2)nc1Cc1cccc(C(F)(F)F)c1` [Compound 108] was tested, and the “Plant response rating, Rice” value (rice (Oryza sativa); [11]) was 15, the “Plant response rating, Rice” value (rice (Oryza sativa); [12]) was 20 and the “Plant response rating, Rice” value (rice (Oryza sativa); Flood, 31 g ai/ha) was 0. The “Plant response rating, Rice” value (rice (Oryza sativa); Flood, 62 g ai/ha) was 0, the “Plant response rating, Ducksalad” value [1, 11] was 30 and the “Plant response rating, Ducksalad” value [1, 12] was 45. The “Plant response rating, Ducksalad” value ([1]; Flood, 31 g ai/ha) was 0, the “Plant response rating, Ducksalad” value ([1]; Flood, 62 g ai/ha) was 0 and the “Barnyardgrass plant response rating” value [2, 13] was 40. For the same compound, the “Barnyardgrass plant response rating” value [2, 14] was 70, the “Plant response rating, Barnyardgrass” value [2, 15] was 30 and the “Plant response rating, Barnyardgrass” value [2, 16] was 80. For the same compound, the “Velvetleaf plant response rating” value [3, 13] was 60, the “Velvetleaf plant response rating” value [3, 14] was 80 and the “Plant response rating, Velvetleaf” value [3, 17] was 0. The “Plant response rating, Velvetleaf” value [3, 16] was 20, the “Plant response rating, Sedge, Umbrella” value [4, 11] was 75 and the “Plant response rating, Sedge, Umbrella” value [4, 12] was 85. The “Plant response rating, Sedge, Umbrella” value ([4]; Flood, 31 g ai/ha) was 20, the “Plant response rating, Sedge, Umbrella” value ([4]; Flood, 62 g ai/ha) was 20 and the “Foxtail, Giant plant response rating” value [5, 13] was 60. For the same compound, the “Foxtail, Giant plant response rating” value [5, 14] was 90, the “Plant response rating, Foxtail, Giant” value [5, 17] was 80 and the “Plant response rating, Foxtail, Giant” value [5, 16] was 100. The “Corn plant response rating” value (corn (Zea mays); [13]) was 20, the “Corn plant response rating” value (corn (Zea mays); [14]) was 30 and the “Plant response rating, Corn” value (corn (Zea mays); [15]) was 0. For the same compound, the “Plant response rating, Corn” value (corn (Zea mays); [16]) was 0, the “Wheat plant response rating” value [6, 13] was 20 and the “Wheat plant response rating” value [6, 14] was 30. The “Plant response rating, Wheat” value [6, 17] was 0, the “Plant response rating, Wheat” value [6, 16] was 0 and the “Crabgrass, Large plant response rating” value [7, 13] was 90. The “Crabgrass, Large plant response rating” value [7, 14] was 90, the “Plant response rating, Crabgrass, Large” value [7, 15] was 90 and the “Plant response rating, Crabgrass, Large” value [7, 16] was 100. For the same compound, the “Morningglory plant response rating” value [8, 13] was 100, the “Morningglory plant response rating” value [8, 14] was 100 and the “Plant response rating, Morningglory” value [8, 17] was 0. For the same compound, the “Plant response rating, Morningglory” value [8, 16] was 20, the “Plant response rating, Barnyardgrass” value [9, 11] was 20 and the “Plant response rating, Barnyardgrass” value [9, 12] was 30. For the same compound, the “Plant response rating, Barnyardgrass” value ([9]; Flood, 31 g ai/ha) was 0, the “Plant response rating, Barnyardgrass” value ([9]; Flood, 62 g ai/ha) was 0 and the “Pigweed plant response rating” value [10, 13] was 90. The “Pigweed plant response rating” value [10, 14] was 100, the “Plant response rating, Pigweed” value [10, 17] was 80 and the “Plant response rating, Pigweed” value [10, 16] was 100.

In the case of `CCc1nn(-c2ccc(C(F)(F)F)cc2)nc1Cn1ccc(C(F)(F)F)n1` [Compound 118], the “Plant response rating, Rice” value (rice (Oryza sativa); [11]) is reported as 15, the “Plant response rating, Rice” value (rice (Oryza sativa); [12]) is reported as 20 and the “Plant response rating, Rice” value (rice (Oryza sativa); Flood, 31 g ai/ha) is reported as 0. The “Plant response rating, Rice” value (rice (Oryza sativa); Flood, 62 g ai/ha) was 0, the “Plant response rating, Ducksalad” value [1, 11] was 70 and the “Plant response rating, Ducksalad” value [1, 12] was 70. The “Plant response rating, Ducksalad” value ([1]; Flood, 31 g ai/ha) was 0, the “Plant response rating, Ducksalad” value ([1]; Flood, 62 g ai/ha) was 30 and the “Barnyardgrass plant response rating” value [2, 18] was 30. The “Barnyardgrass plant response rating” value [2, 19] was 70, the “Velvetleaf plant response rating” value [3, 18] was 70 and the “Velvetleaf plant response rating” value [3, 19] was 10. For the same compound, the “Plant response rating, Sedge, Umbrella” value [4, 11] was 70, the “Plant response rating, Sedge, Umbrella” value [4, 12] was 75 and the “Plant response rating, Sedge, Umbrella” value ([4]; Flood, 31 g ai/ha) was 40. For the same compound, the “Plant response rating, Sedge, Umbrella” value ([4]; Flood, 62 g ai/ha) was 65, the “Foxtail, Giant plant response rating” value [5, 18] was 60 and the “Foxtail, Giant plant response rating” value [5, 19] was 100. For the same compound, the “Corn plant response rating” value (corn (Zea mays); [18]) was 30, the “Corn plant response rating” value (corn (Zea mays); [19]) was 20 and the “Wheat plant response rating” value [6, 18] was 20. The “Wheat plant response rating” value [6, 19] was 10, the “Crabgrass, Large plant response rating” value [7, 18] was 90 and the “Crabgrass, Large plant response rating” value [7, 19] was 100. The “Morningglory plant response rating” value [8, 18] was 100, the “Morningglory plant response rating” value [8, 19] was 20 and the “Plant response rating, Barnyardgrass” value [9, 11] was 50. The “Plant response rating, Barnyardgrass” value [9, 12] was 65, the “Plant response rating, Barnyardgrass” value ([9]; Flood, 31 g ai/ha) was 20 and the “Plant response rating, Barnyardgrass” value ([9]; Flood, 62 g ai/ha) was 30. The “Pigweed plant response rating” value [10, 18] was 100 and the “Pigweed plant response rating” value [10, 19] was 100.

For `CCc1nn(-c2ccc(C(F)(F)F)cc2)nc1Cn1cc(C(F)(F)F)nc1Cl` [Compound 122], the “Plant response rating, Rice” value (rice (Oryza sativa); [11]) was 25, the “Plant response rating, Rice” value (rice (Oryza sativa); [12]) was 30 and the “Plant response rating, Rice” value (rice (Oryza sativa); Flood, 31 g ai/ha) was 0. For the same compound, the “Plant response rating, Rice” value (rice (Oryza sativa); Flood, 62 g ai/ha) was 0, the “Plant response rating, Ducksalad” value [1, 11] was 60 and the “Plant response rating, Ducksalad” value [1, 12] was 65. The “Plant response rating, Ducksalad” value ([1]; Flood, 31 g ai/ha) was 0, the “Plant response rating, Ducksalad” value ([1]; Flood, 62 g ai/ha) was 0 and the “Barnyardgrass plant response rating” value [2, 13] was 40. The “Barnyardgrass plant response rating” value [2, 14] was 70, the “Plant response rating, Barnyardgrass” value [2, 17] was 20 and the “Plant response rating, Barnyardgrass” value [2, 20] was 70. For the same compound, the “Velvetleaf plant response rating” value [3, 13] was 80, the “Velvetleaf plant response rating” value [3, 14] was 100 and the “Plant response rating, Velvetleaf” value [3, 17] was 30. The “Plant response rating, Velvetleaf” value [3, 20] was 60, the “Plant response rating, Sedge, Umbrella” value [4, 11] was 85 and the “Plant response rating, Sedge, Umbrella” value [4, 12] was 85. The “Plant response rating, Sedge, Umbrella” value ([4]; Flood, 31 g ai/ha) was 70, the “Plant response rating, Sedge, Umbrella” value ([4]; Flood, 62 g ai/ha) was 75 and the “Foxtail, Giant plant response rating” value [5, 13] was 60. The “Foxtail, Giant plant response rating” value [5, 14] was 90, the “Plant response rating, Foxtail, Giant” value [5, 17] was 90 and the “Plant response rating, Foxtail, Giant” value [5, 20] was 100. The “Corn plant response rating” value (corn (Zea mays); [13]) was 20, the “Corn plant response rating” value (corn (Zea mays); [14]) was 30 and the “Plant response rating, Corn” value (corn (Zea mays); [17]) was 10. For the same compound, the “Plant response rating, Corn” value (corn (Zea mays); [20]) was 20, the “Wheat plant response rating” value [6, 13] was 20 and the “Wheat plant response rating” value [6, 14] was 30. For the same compound, the “Plant response rating, Wheat” value [6, 17] was 0, the “Plant response rating, Wheat” value [6, 20] was 20 and the “Crabgrass, Large plant response rating” value [7, 13] was 80. For the same compound, the “Crabgrass, Large plant response rating” value [7, 14] was 90, the “Plant response rating, Crabgrass, Large” value [7, 17] was 90 and the “Plant response rating, Crabgrass, Large” value [7, 20] was 100. The “Morningglory plant response rating” value [8, 13] was 90, the “Morningglory plant response rating” value [8, 14] was 100 and the “Plant response rating, Morningglory” value [8, 17] was 20. The “Plant response rating, Morningglory” value [8, 20] was 50, the “Plant response rating, Barnyardgrass” value [9, 11] was 40 and the “Plant response rating, Barnyardgrass” value [9, 12] was 40. For the same compound, the “Plant response rating, Barnyardgrass” value ([9]; Flood, 31 g ai/ha) was 10, the “Plant response rating, Barnyardgrass” value ([9]; Flood, 62 g ai/ha) was 20 and the “Pigweed plant response rating” value [10, 13] was 100. The “Pigweed plant response rating” value [10, 14] was 100, the “Plant response rating, Pigweed” value [10, 17] was 90 and the “Plant response rating, Pigweed” value [10, 20] was 100.
